Laboratory results: article PMC2365101, “Anti-Inflammatory Activity of (Polyphenolic)-Sulfonates and Their Sodium Salts in Rodents” (Metal-Based Drugs, 1998)
pIC50: −log10 of the molar value.

Key:
[1] = tested on: CF1 male mice, LPS Salmonella abortus equi induced death; test: Protection against septic shock (LPS induced endotoxic shock); type: in vivo
[2] = tested on: CF1 male mice, carrageenan induced edema; test: Anti-inflammatory screen in mice (carrageenan induced foot edema); type: in vivo; details: for reduction of edema: 16 mg/kg X 2
Source text: Few reports in the literature indicate interaction at these receptor sites other than by peptides or antibodies. […] Blocking these receptors is desirable because the entire inflammation cascade of events is triggered by the early release of TNFa and IL-1. […] Radioisotopes were obtained from New England Nuclear [Dupont, Boston, MA] and substrates and co- factors were obtained from Sigma Chemical Co. [St. Louis, MO]. […] Cell lines were obtained from American Type Culture Collection [Rockville, MD]. In Vivo Tests Anti-inflammatory screen in mice: Male CF male mice weighing 28-32g obtained from Jackson Lab. […] Evaluation of the induced edema was made by injecting 2% carrageenan in 0.9% saline into the plantar region of the foot. The opposite foot injected with 0.9% isotonic saline was used as a base line. […] Salmonella abortus equi [Lot # 69F4003] […] Drugs from 2 to 16 mg/kg, I.P. were administered 2 hr prior and 2 hr post-injection of the LPS and then subsequently for every 24 hr for the length ofthe animals' lives. Deaths were recorded every 12 hr and continued for 96 hr. […] In vitro TNFa andIL-1 Measurements and Cellular Regulation IC-21 mouse macrophages were maintained in RPMI-1640 + 10% FCS + P/S. After the cells had grown to confluency, E. coli LPS at 10 Ixg/ml was added to the medium. Agents were incubated at 12.5 to 100 µM final concentration for 18 hr. The medium (100 btl) was collected for TNFCt determinations. Interleukin-1 [IL-1] release was determined using P388D1 cells which were maintained in RPMI-1640 + 10% FCS + P/S. The L929 bioassay was used to quantitate the TNF and the IL-1 levels. The L929 mouse fibroblasts were grown in DMEM + 10% FCS + P/S to confluency in 96 well plates and incubated with 100 tl ofmedium from […] or P388D cells after 18 hr. The cells were stained with 0.2% crystal violet in 20% MeOH and read at 580 nm using a Molecular Devices scanner (SOFT-max program). High Affinity Binding to Receptors on L929-106 Cells Two laCi of 125I-TNFct (human recombinant, 30 mCi/tg New England Nuclear) or 125I-IL-1 (70-120[.t Ci/lxg,New England Nuclear) was added to confluency L929 cells for 90 min or 5 hr, respectively with 25, 50 and 100 tM of the test compounds 12]. The cells were washed repeatedly with isotonic saline, pH.7.2 and aliquots counted. Prostaglandin cylcooxygenase activity Mouse J774AI macrophages maintained in Dulbecco's modified Eagle's medium + 15% FCS + P/S. Cells (5 x 106) were incubated with agents (5 to 100 ].tM final concentration) and 3H-arachidonic acid (100 Ci/mol) for 60 min at 37C in a CO2 incubator. The reaction was terminated with 2N HCI, the mixture extracted 2 X with ether, and the organic layer evaporated.

[3] = tested on: cytokine synthesis and release; details: tissue culture; no reference given; read-out: IC50 to block cytokine synthesis and release; cited from earlier work
[4] = biological target: J774-A1 prostaglandin cyclooxygenase; test: Prostaglandin cyclooxygenase activity in J774-A1 macrophages; type: cell-based, mouse; details: 60 min; read-out: IC50 Cyclo-oxygenase J774-A1
Source text: (§1) Few reports in the literature indicate interaction at these receptor sites other than by peptides or antibodies. […] Blocking these receptors is desirable because the entire inflammation cascade of events is triggered by the early release of TNFa and IL-1. […] Radioisotopes were obtained from New England Nuclear [Dupont, Boston, MA] and substrates and co- factors were obtained from Sigma Chemical Co. [St. Louis, MO]. […] Cell lines were obtained from American Type Culture Collection [Rockville, MD]. In Vivo Tests Anti-inflammatory screen in mice: Male CF male mice weighing 28-32g obtained from Jackson Lab. [Bar Harbor, […]] were used to screen agents at 8 or 16 mg/kg intraperitoneal [I.P.] x 2 administered 3 hr and 30 min prior to administering the irritant, according to Winter's protocol. Evaluation of the induced edema was made by injecting 2% carrageenan in 0.9% saline into the plantar region of the foot. The opposite foot injected with 0.9% isotonic saline was used as a base line. […] Salmonella abortus equi [Lot # 69F4003] […] Drugs from 2 to 16 mg/kg, I.P. were administered 2 hr prior and 2 hr post-injection of the LPS and then subsequently for every 24 hr for the length ofthe animals' lives. Deaths were recorded every 12 hr and continued for 96 hr. […] In vitro TNFa andIL-1 Measurements and Cellular Regulation IC-21 mouse macrophages were maintained in RPMI-1640 + 10% FCS + P/S. After the cells had grown to confluency, E. coli LPS at 10 Ixg/ml was added to the medium. Agents were incubated at 12.5 to 100 µM final concentration for 18 hr. The medium (100 btl) was collected for TNFCt determinations. Interleukin-1 [IL-1] release was determined using P388D1 cells which were maintained in RPMI-1640 + 10% FCS + P/S. The L929 bioassay was used to quantitate the TNF and the IL-1 levels. The L929 mouse fibroblasts were grown in DMEM + 10% FCS + P/S to confluency in 96 well plates and incubated with 100 tl ofmedium from […] or P388D cells after 18 hr. The cells were stained with 0.2% crystal violet in 20% MeOH and read at 580 nm using a Molecular Devices scanner (SOFT-max program). High Affinity Binding to Receptors on L929-106 Cells Two laCi of 125I-TNFct (human recombinant, 30 mCi/tg New England Nuclear) or 125I-IL-1 (70-120[.t Ci/lxg,New England Nuclear) was added to confluency L929 cells for 90 min or 5 hr, respectively with 25, 50 and 100 tM of the test compounds 12]. The cells were washed repeatedly with isotonic saline, pH.7.2 and aliquots counted. Prostaglandin cylcooxygenase activity Mouse J774AI macrophages maintained in Dulbecco's modified Eagle's medium + 15% FCS + P/S. Cells (5 x 106) were incubated with agents (5 to 100 ].tM final concentration) and 3H-arachidonic acid (100 Ci/mol) for 60 min at 37C in a CO2 incubator. The reaction was terminated with 2N HCI, the mixture extracted 2 X with ether, and the organic layer evaporated.

[5] = tested on: CF1 male mice, LPS Salmonella abortus equi induced death; test: Protection against septic shock (LPS induced endotoxic shock); type: in vivo; details: for Percent Survival at 52 hr: LPS 10 mg/kg, CF1 male mice, N=6
Source text: as §1

[6] = biological target: J774-A1 macrophage elastase; test: Elastase activity in J774-A1 macrophages; type: biochemical, mouse
[7] = biological target: human leukocyte elastase (RPMI 1788); test: Elastase activity in human leukocytes RPMI 1788; type: biochemical
[8] = biological target: IC-21 macrophage elastase; test: Elastase activity in IC-21 macrophages; type: biochemical, mouse
[9] = 8 mg/Kg X 2, I.P., CF1 male mice, N=6
[10] = 16 mg/Kg X 2, I.P., CF1 male mice, N=6

| SMILES | pIC50 [4] | Percent Survival at 52 hr ([5]; 4 mg/Kg I.P.) | Percent Survival at 52 hr ([5]; 8 mg/Kg I.P.) | Percent Survival at 52 hr ([5]; 16 mg/Kg I.P.) | protection from LPS induced death ([5]; 16 mg/kg) | pIC50 ([6]; 60 min) | pIC50 ([6]; 120 min) | pIC50 ([7]; 60 min) | pIC50 ([7]; 120 min) | Percent of Control (induced edema) [2, 9] | Percent of Control (induced edema) [2, 10] | pIC50 ([8]; 120 min) | pIC50 ([8]; 60 min) | further results |
| --- | --- | --- | --- | --- | --- | --- | --- | --- | --- | --- | --- | --- | --- | --- |
| CC(=O)CCCCn1c(=O)c2c(ncn2C)n(C)c1=O [Pentoxifylline, pentoxifylline] |  |  |  |  |  |  |  |  |  |  |  |  |  | Percent Survival at 52 hr ([1]; 50 mg/Kg/day): 67 + 6%; protection from LPS induced death ([1]; 50 mg/kg): 67%; Percent of Control (induced edema) ([2]; 50 mg/Kg X 2, CF1 male mice): 70 + 6% of Control |
| C[C@]12CCC(=O)C=C1CC[C@@H]1[C@@H]2[C@@H](O)C[C@@]2(C)[C@H]1CC[C@]2(O)C(=O)CO [hydrocortisone] |  |  |  |  |  |  |  |  |  |  |  |  |  | pIC50 [3]: 5.00 |
| O=S(=O)(O)c1cc2c(O)c(c1)Cc1cc(S(=O)(=O)O)cc(c1O)Cc1cc(S(=O)(=O)O)cc(c1O)Cc1cc(S(=O)(=O)O)cc(c1O)Cc1cc(S(=O)(=O)O)cc(c1O)Cc1cc(S(=O)(=O)O)cc(c1O)C2 [Compound 2] | 4.12 | 50% | 50% | 83% | 83% | 5.10 | 3.62 | 4.17 | 4.24 | 47 + 4% of Control | 74+ 5% of Control |  |  | Percent Survival at 52 hr ([5]; 2 mg/kg I.P.): 83% |
| COc1c2cc(S(=O)(=O)[O-])cc1Cc1cc(S(=O)(=O)[O-])cc(c1OC)Cc1cc(S(=O)(=O)[O-])cc(c1OC)Cc1cc(S(=O)(=O)[O-])cc(c1OC)C2.[Na+].[Na+].[Na+].[Na+] [Compound 5] | 4.19 |  | 33% | 67% | 67% |  |  |  |  |  | 61 +5% of Control | 3.95 |  | IC50 Elastase J774-A1 ([6]; 120 min): Increased |
| CCCCC1C(=O)N(c2ccccc2)N(c2ccccc2)C1=O [Phenylbutazone, phenylbutazone, reference compound] |  |  |  |  |  |  |  |  |  |  |  |  |  | reduction in edema ([2]; 50 mg/kg X 2): 47% |
| C[C@@H]1C[C@H]2[C@@H]3CCC4=CC(=O)C=C[C@]4(C)[C@@]3(F)[C@@H](O)C[C@]2(C)[C@@]1(O)C(=O)CO [dexamethasone, reference compound] |  |  |  |  |  |  |  |  |  |  |  |  |  | protection from LPS induced death ([5]; dexamethasone dose printed 'at mg/kg' (methods: 1 mg/kg)): 67% |
| N=C(N)c1ccc(OCCCCCOc2ccc(C(=N)N)cc2)cc1 [pentamidine] |  |  |  |  |  |  |  |  |  |  |  |  |  | pIC50 [3]: 6.00 |
| O=S(=O)(O)c1cc2c(O)c(c1)Cc1cc(S(=O)(=O)O)cc(c1O)Cc1cc(S(=O)(=O)O)cc(c1O)Cc1cc(S(=O)(=O)O)cc(c1O)Cc1cc(S(=O)(=O)O)cc(c1O)Cc1cc(S(=O)(=O)O)cc(c1O)Cc1cc(S(=O)(=O)O)cc(c1O)Cc1cc(S(=O)(=O)O)cc(c1O)C2 [Compound 1] | 4.69 | 50% | 50% |  | 83% |  | 3.44 | 4.24 | 4.25 | 51 + 4% of Control | 56+ 5% of Control | 4.35 | 4.27 | reduction of edema [2]: greater than 40% |
| O=S(=O)(O)c1cc2c(O)c(c1)Cc1cc(S(=O)(=O)O)cc(c1O)Cc1cc(S(=O)(=O)O)cc(c1O)Cc1cc(S(=O)(=O)O)cc(c1O)C2 [Compound 3] | 4.56 | 50% | 100% | 50% |  | 4.52 to 5.00 | 3.55 | 4.14 | 4.60 | 58 + 6% of Control | 61 +5% of Control | 4.60 | 4.14 | Percent Survival at 52 hr ([5]; 2 mg/kg I.P.): 67%; protection from LPS induced death ([5]; 8 mg/kg): 100%; pIC50 ([6]; 60 min, listed as #3): 4.54 |
| COc1c2cc(S(=O)(=O)O)cc1Cc1cc(S(=O)(=O)O)cc(c1OC)Cc1cc(S(=O)(=O)O)cc(c1OC)Cc1cc(S(=O)(=O)O)cc(c1OC)Cc1cc(S(=O)(=O)O)cc(c1OC)Cc1cc(S(=O)(=O)O)cc(c1OC)Cc1cc(S(=O)(=O)O)cc(c1OC)Cc1cc(S(=O)(=O)O)cc(c1OC)C2 [Compound 4] | 4.23 | 33% | 67% | 83% | 83% | 6.52 | 3.57 | 4.27 | 4.35 | 56 + 6% of Control | 48+4% of Control | 4.25 | 4.24 | reduction of edema [2]: greater than 40% |
